Data reported in ChEMBL document CHEMBL5291721, “A preclinical secondary pharmacology resource illuminates target-adverse drug reaction associations of marketed drugs” (Nat Commun, 2023).
One block for each compound: values may come before it.

Columns and labels:
Androgen receptor = target: T1, Androgen receptor (Homo sapiens, UniProt P10275)
T1 sequence (P10275 whole entry): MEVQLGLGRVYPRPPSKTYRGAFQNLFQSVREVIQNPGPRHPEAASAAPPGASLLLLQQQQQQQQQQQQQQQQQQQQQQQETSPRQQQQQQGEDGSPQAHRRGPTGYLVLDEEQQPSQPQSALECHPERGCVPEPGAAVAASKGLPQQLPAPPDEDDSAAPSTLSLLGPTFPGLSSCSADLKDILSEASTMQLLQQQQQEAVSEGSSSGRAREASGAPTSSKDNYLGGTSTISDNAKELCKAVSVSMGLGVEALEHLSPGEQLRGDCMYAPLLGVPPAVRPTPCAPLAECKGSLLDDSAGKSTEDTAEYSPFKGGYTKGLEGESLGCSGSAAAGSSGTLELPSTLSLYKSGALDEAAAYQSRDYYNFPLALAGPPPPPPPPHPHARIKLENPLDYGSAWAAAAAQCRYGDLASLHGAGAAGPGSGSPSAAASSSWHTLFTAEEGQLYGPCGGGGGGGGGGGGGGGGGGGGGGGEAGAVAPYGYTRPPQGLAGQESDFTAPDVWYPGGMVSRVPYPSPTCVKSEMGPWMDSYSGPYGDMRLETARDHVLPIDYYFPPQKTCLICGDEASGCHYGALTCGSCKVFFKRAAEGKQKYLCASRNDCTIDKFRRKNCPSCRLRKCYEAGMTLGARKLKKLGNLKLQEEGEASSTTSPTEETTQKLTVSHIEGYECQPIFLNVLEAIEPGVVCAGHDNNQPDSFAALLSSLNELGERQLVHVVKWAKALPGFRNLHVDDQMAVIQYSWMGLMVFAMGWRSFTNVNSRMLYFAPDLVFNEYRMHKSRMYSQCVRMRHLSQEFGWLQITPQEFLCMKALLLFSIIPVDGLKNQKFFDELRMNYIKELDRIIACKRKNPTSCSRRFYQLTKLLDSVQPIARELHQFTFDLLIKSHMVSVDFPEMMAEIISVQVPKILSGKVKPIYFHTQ

[1] = target: Sodium-dependent dopamine transporter (Homo sapiens, UniProt Q01959)
Histamine H2 receptor = Histamine H2 receptor (Homo sapiens, UniProt P25021); format: functional, cell-based
[2] = target: 3',5'-cyclic-AMP phosphodiesterase 4D (Homo sapiens, UniProt Q08499); format: functional
[3] = target: T2, 5-hydroxytryptamine receptor 1A (Homo sapiens, UniProt P08908); format: functional, cell-based
T2 sequence (P08908 whole entry): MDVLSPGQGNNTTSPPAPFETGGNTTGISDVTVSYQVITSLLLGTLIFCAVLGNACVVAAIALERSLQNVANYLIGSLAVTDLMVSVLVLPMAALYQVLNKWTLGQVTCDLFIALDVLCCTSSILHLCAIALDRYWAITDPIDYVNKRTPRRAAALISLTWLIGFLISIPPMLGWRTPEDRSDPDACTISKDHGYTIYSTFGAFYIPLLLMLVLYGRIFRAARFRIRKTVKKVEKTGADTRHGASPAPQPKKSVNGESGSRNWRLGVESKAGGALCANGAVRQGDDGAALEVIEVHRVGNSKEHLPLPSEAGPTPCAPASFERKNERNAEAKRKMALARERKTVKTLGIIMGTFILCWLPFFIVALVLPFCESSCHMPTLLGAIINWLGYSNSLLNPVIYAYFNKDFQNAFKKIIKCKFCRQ

[4] = target: cGMP-inhibited 3',5'-cyclic phosphodiesterase 3A (Homo sapiens, UniProt Q14432); format: functional
Motilin receptor = Motilin receptor (Homo sapiens, UniProt O43193)
[5] = target: T3, Alpha-2C adrenergic receptor (Homo sapiens, UniProt P18825); format: functional
T3 sequence (P18825 whole entry): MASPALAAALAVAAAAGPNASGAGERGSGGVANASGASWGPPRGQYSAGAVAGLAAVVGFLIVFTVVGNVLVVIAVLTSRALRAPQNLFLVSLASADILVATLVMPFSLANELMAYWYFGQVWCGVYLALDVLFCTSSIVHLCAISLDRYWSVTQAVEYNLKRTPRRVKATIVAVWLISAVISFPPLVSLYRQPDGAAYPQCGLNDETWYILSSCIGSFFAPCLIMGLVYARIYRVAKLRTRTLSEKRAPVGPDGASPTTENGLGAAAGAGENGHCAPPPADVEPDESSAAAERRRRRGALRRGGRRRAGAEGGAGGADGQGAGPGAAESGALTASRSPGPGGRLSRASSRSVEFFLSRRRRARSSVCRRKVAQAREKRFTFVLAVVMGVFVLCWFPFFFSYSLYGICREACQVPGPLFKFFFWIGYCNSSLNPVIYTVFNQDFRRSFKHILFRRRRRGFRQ

[6] = target: Glutamate receptor ionotropic, NMDA 1 (Rattus norvegicus, UniProt P35439)
[7] = target: Beta-1 adrenergic receptor (Homo sapiens, UniProt P08588); format: functional
[8] = target: T4, Prostaglandin G/H synthase 1 (Rattus norvegicus, UniProt Q63921); format: functional
T4 sequence (Q63921 whole entry): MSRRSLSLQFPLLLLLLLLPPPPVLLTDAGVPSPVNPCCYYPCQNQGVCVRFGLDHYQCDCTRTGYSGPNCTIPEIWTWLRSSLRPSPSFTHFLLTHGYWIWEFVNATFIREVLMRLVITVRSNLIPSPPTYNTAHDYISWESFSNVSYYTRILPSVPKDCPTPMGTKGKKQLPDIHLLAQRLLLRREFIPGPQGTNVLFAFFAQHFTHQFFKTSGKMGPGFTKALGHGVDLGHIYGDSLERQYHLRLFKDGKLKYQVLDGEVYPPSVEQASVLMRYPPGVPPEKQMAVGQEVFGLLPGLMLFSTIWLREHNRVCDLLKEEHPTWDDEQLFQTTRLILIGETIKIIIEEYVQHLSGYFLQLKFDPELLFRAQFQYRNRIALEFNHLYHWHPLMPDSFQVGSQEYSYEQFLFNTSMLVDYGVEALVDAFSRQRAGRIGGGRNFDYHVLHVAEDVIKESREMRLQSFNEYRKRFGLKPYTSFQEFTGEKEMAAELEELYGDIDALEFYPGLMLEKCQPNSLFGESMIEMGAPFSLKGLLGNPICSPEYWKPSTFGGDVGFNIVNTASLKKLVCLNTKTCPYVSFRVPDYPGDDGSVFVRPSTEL

[9] = target: Delta-type opioid receptor (Homo sapiens, UniProt P41143)
Further: assay procedure not described here.

Chain of Delta-type opioid receptor (P41143 whole entry): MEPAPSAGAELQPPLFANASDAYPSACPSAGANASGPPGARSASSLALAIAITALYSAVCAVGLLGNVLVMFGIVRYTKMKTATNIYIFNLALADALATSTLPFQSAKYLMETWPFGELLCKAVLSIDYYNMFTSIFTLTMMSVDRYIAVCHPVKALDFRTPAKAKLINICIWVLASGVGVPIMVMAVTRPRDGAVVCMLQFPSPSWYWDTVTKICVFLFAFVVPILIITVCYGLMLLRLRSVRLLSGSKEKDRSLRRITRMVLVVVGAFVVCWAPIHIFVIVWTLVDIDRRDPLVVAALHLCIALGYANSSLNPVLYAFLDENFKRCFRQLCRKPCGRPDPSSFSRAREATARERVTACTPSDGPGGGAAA
Chain of Histamine H2 receptor (P25021 whole entry): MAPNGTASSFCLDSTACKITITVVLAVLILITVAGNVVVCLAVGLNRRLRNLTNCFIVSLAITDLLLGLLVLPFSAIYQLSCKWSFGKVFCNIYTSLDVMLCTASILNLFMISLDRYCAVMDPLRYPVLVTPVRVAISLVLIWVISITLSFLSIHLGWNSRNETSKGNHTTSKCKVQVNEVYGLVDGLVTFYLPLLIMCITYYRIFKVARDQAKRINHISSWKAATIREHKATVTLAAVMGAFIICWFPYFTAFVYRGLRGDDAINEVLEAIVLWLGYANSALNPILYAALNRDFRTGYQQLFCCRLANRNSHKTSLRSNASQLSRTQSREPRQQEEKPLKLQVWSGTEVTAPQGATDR
Chain of cGMP-inhibited 3',5'-cyclic phosphodiesterase 3A (Q14432 whole entry): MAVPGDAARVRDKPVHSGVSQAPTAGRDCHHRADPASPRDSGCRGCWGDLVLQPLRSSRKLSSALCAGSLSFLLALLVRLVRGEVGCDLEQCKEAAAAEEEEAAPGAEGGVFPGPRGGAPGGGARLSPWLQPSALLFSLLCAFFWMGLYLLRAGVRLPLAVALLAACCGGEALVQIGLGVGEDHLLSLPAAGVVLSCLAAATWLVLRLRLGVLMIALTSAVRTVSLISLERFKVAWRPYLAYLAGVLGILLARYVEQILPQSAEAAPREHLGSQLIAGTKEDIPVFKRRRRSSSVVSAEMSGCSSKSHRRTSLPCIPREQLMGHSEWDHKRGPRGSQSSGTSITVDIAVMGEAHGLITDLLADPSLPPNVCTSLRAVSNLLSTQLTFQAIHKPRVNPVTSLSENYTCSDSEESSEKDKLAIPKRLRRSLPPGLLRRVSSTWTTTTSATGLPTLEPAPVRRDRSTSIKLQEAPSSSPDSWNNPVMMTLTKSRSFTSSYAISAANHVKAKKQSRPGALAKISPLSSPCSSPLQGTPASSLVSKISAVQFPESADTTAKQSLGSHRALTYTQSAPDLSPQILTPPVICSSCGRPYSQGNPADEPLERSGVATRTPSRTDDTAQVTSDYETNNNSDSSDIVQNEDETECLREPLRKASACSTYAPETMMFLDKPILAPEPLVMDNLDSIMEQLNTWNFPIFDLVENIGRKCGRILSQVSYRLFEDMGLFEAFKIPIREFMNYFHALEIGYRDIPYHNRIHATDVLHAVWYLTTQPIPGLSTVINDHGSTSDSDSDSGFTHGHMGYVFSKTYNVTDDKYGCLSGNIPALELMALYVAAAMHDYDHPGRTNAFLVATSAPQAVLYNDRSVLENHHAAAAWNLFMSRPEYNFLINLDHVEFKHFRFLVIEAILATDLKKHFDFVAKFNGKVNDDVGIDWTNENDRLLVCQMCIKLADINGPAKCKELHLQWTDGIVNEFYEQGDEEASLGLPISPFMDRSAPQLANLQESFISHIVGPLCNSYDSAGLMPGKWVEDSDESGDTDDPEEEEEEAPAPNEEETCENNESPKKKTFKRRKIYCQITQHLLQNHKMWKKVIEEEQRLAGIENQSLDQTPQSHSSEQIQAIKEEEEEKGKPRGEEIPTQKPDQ
Chain of Beta-1 adrenergic receptor (P08588 whole entry): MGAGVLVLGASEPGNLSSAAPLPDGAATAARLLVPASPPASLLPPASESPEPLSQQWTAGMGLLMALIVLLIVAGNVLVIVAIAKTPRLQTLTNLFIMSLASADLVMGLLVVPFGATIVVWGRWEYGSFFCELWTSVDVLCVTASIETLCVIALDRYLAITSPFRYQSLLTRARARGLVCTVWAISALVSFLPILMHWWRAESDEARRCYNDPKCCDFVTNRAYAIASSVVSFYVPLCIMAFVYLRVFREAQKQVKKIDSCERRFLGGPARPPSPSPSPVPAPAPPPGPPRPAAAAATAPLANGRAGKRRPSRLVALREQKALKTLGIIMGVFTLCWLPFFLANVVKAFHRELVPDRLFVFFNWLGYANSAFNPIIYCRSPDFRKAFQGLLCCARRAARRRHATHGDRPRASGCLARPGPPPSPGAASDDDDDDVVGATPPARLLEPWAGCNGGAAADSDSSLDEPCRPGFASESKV
Chain of Sodium-dependent dopamine transporter (Q01959 whole entry): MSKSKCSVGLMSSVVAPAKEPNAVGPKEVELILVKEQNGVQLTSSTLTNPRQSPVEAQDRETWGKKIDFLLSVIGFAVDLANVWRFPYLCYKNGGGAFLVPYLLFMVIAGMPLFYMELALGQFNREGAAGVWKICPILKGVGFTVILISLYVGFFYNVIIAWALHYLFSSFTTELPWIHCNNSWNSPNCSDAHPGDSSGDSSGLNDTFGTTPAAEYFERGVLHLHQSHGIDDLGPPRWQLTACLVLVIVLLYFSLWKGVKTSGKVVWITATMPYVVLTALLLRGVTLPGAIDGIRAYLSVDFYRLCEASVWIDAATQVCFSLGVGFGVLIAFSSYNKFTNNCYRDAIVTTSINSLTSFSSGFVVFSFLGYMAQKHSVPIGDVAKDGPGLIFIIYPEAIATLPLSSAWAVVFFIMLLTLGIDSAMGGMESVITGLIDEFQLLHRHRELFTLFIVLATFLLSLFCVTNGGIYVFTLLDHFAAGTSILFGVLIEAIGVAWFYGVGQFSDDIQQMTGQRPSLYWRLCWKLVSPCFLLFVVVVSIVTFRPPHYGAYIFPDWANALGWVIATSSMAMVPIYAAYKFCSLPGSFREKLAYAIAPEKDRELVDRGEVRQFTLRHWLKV
Chain of Motilin receptor (O43193 whole entry): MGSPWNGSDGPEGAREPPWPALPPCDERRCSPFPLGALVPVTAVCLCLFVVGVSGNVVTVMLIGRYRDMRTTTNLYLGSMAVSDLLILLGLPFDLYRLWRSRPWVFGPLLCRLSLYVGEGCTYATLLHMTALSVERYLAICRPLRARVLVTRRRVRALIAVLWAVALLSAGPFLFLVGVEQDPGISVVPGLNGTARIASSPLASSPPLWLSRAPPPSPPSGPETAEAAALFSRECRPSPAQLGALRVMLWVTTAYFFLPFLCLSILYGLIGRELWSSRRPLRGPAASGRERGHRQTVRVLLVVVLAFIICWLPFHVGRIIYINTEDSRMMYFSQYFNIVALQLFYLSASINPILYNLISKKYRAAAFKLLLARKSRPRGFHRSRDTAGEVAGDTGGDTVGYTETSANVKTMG
Chain of 3',5'-cyclic-AMP phosphodiesterase 4D (Q08499 whole entry): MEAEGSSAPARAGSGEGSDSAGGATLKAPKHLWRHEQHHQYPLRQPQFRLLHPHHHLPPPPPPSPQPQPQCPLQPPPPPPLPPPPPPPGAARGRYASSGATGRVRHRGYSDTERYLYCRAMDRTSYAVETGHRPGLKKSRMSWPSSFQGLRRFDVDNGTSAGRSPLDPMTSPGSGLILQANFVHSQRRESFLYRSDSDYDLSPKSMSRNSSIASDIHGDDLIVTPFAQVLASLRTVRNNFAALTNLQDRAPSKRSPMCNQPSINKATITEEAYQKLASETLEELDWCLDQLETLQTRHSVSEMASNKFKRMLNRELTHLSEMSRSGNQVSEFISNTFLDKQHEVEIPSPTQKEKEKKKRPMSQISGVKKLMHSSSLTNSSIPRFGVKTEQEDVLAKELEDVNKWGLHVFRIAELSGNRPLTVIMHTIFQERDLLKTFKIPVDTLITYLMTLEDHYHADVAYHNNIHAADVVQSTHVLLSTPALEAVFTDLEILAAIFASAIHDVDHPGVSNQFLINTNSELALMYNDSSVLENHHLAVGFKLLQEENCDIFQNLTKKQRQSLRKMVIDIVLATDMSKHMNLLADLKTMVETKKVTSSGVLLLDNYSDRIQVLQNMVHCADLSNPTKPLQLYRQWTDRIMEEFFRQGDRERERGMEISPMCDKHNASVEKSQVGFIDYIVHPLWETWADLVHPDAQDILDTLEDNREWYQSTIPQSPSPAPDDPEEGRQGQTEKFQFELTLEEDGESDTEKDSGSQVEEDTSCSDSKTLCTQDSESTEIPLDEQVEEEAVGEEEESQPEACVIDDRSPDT

Compound: CCCCCCCC(=O)N[C@H](CN1CCCC1)[C@H](O)c1ccc2c(c1)OCCO2
AC50 (Androgen receptor): > 30 µM

Compound: CC(=O)OC(C)OC(=O)C(C)c1ccc(-c2ccccc2)c(F)c1 (stereo not drawn)
AC50 (Androgen receptor): > 30 µM

Compound: C[C@H](N)C(=O)O [ALANINE]
AC50 (Androgen receptor): > 30 µM

Compound: COC(=O)C1=C(C)NC(C)=C(C(=O)O[C@H]2CCN(Cc3ccccc3)C2)[C@H]1c1cccc([N+](=O)[O-])c1 [BARNIDIPINE]
AC50 (Androgen receptor): > 30 µM

Compound: Cc1nnc(SCC2=C(C(=O)O)N3C(=O)[C@@H](NC(=O)Cn4cc(Cl)c(=O)c(Cl)c4)[C@H]3SC2)s1 [CEFAZEDONE]
AC50 (Androgen receptor): > 30 µM

Compound: CCC[C@@H]1C[C@@H](C(=O)N[C@@H]([C@H]2O[C@H](SC)[C@H](OP(=O)(O)O)[C@@H](O)[C@H]2O)[C@H](C)Cl)N(C)C1 [CLINDAMYCIN PHOSPHATE]
AC50 (Androgen receptor): > 30 µM

Compound: Nc1ccncc1 [DALFAMPRIDINE]
AC50 (Androgen receptor): > 30 µM

Compound: Cc1onc(-c2c(Cl)cccc2Cl)c1C(=O)N[C@@H]1C(=O)N2[C@@H]1SC(C)(C)[C@@H]2C(=O)O [DICLOXACILLIN]
AC50 (Androgen receptor): > 30 µM

Compound: C[C@H]1O[C@@H](O[C@H]2[C@@H](O)C[C@H](O[C@H]3[C@@H](O)C[C@H](O[C@H]4CC[C@@]5(C)[C@H](CC[C@@H]6[C@@H]5CC[C@]5(C)[C@@H](C7=CC(=O)OC7)CC[C@]65O)C4)O[C@@H]3C)O[C@@H]2C)C[C@H](O)[C@@H]1O [DIGITOXIN]
AC50 (Androgen receptor): > 30 µM

Compound: OC(CCCN1CCCCC1)(c1ccccc1)c1ccccc1 [DIPHENIDOL]
AC50 (Androgen receptor): > 30 µM

Compound: C[C@@H](O)[C@H]1C(=O)N2C(C(=O)O)=C([C@H]3CCCO3)S[C@H]12 [FAROPENEM]
AC50 (Androgen receptor): > 30 µM

Compound: COCCOc1cnc(NS(=O)(=O)c2ccccc2)nc1 [GLYMIDINE]
AC50 (Androgen receptor): > 30 µM

Compound: CCC(=O)O[C@]1(C(=O)COC(C)=O)CC[C@H]2[C@@H]3CCC4=CC(=O)CC[C@]4(C)[C@H]3[C@@H](O)C[C@@]21C [HYDROCORTISONE ACEPONATE]
AC50 (Androgen receptor): 0.314 µM

Compound: NC(=O)NCCC[C@H](N)C(=O)O [L-CITRULLINE]
AC50 (Androgen receptor): > 30 µM

Compound: CC(=O)O[C@H]1C[C@H](O[C@H]2[C@@H](O)C[C@H](O[C@H]3[C@@H](O)C[C@H](O[C@H]4CC[C@@]5(C)[C@H](CC[C@@H]6[C@@H]5C[C@@H](O)[C@]5(C)[C@@H](C7=CC(=O)OC7)CC[C@]65O)C4)O[C@@H]3C)O[C@@H]2C)O[C@H](C)[C@H]1O[C@@H]1O[C@H](CO)[C@@H](O)[C@H](O)[C@H]1O [LANATOSIDE C]
AC50 (Androgen receptor): > 30 µM

Compound: Nc1nc(N)nc(Nc2ccc([As]3SCC(CO)S3)cc2)n1 (stereo not drawn) [MELARSOPROL]
AC50 (Androgen receptor): > 30 µM

Compound: Cc1cc(CCN2CCN(c3cccc(Cl)c3)CC2)n[nH]1 [MEPIPRAZOLE]
AC50 (Androgen receptor): > 30 µM

Compound: CC[N+](C)(CC)CCOC(=O)C1c2ccccc2Oc2ccccc21 [METHANTHELINE]
AC50 (Androgen receptor): > 30 µM

Compound: CO[C@H]1[C@@H](O)C[C@H](O[C@H]2[C@@H](O)C[C@H](O[C@H]3[C@@H](O)C[C@H](O[C@H]4CC[C@@]5(C)[C@H](CC[C@@H]6[C@@H]5C[C@@H](O)[C@]5(C)[C@@H](C7=CC(=O)OC7)CC[C@]65O)C4)O[C@@H]3C)O[C@@H]2C)O[C@@H]1C [METILDIGOXIN]
AC50 (Androgen receptor): > 30 µM

Compound: CC1(C)S[C@@H]2[C@H](NC(=O)[C@H](NC(=O)N3CCN(S(C)(=O)=O)C3=O)c3ccccc3)C(=O)N2[C@H]1C(=O)O [MEZLOCILLIN]
AC50 (Androgen receptor): > 30 µM

Compound: CCC(=O)O[C@@H]1CC(=O)O[C@H](C)C/C=C/C=C/[C@H](OC(C)=O)[C@H](C)C[C@H](CC=O)[C@H](O[C@@H]2O[C@H](C)[C@@H](O[C@H]3C[C@@](C)(OC(C)=O)[C@@H](OC(=O)CC)[C@H](C)O3)[C@H](N(C)C)[C@H]2O)[C@H]1OC [MIOCAMYCIN]
AC50 (Androgen receptor): > 30 µM

Compound: CC(c1ccc(Cl)c(Cl)c1)N1N=C(N)CC1=O (stereo not drawn) [MUZOLIMINE]
AC50 (Androgen receptor): > 30 µM

AC50 [1]: > 30 µM | AC50 (Histamine H2 receptor): > 30 µM | AC50 [2]: > 30 µM | AC50 [3]: > 30 µM | AC50 [4]: > 30 µM | AC50 (Motilin receptor): > 30 µM | AC50 [5]: > 30 µM | AC50 [6]: > 30 µM | AC50 [7]: > 30 µM | AC50 [8]: > 30 µM | AC50 [9]: > 30 µM
Compound: NS(=O)(=O)c1cc(C(=O)O)cc(N2CCCC2)c1Oc1ccccc1 [PIRETANIDE]

Compound: c1cc(CN2CCCNCCNCCCNCC2)ccc1CN1CCCNCCNCCCNCC1 [PLERIXAFOR]
AC50 (Androgen receptor): > 30 µM

Compound: COCCCOc1ccnc(C[S+]([O-])c2nc3ccccc3[nH]2)c1C (stereo not drawn) [RABEPRAZOLE]
AC50 [1]: > 10 µM | AC50 (Histamine H2 receptor): > 10 µM | AC50 [2]: 8 µM | AC50 [3]: > 10 µM | AC50 [4]: > 30 µM | AC50 (Motilin receptor): > 10 µM | AC50 [5]: > 10 µM | AC50 [6]: > 10 µM | AC50 [7]: > 10 µM | AC50 [8]: > 30 µM | AC50 [9]: > 30 µM

AC50 [1]: 13 µM | AC50 (Histamine H2 receptor): > 30 µM | AC50 [2]: > 30 µM | AC50 [3]: > 30 µM | AC50 [4]: > 30 µM | AC50 (Motilin receptor): > 30 µM | AC50 [5]: > 30 µM | AC50 [6]: > 30 µM | AC50 [7]: 21 µM | AC50 [8]: > 30 µM | AC50 [9]: 26 µM
Compound: CC(C)=CCOc1ccc(/C=C/C(=O)c2ccc(OCC=C(C)C)cc2OCC(=O)O)cc1 [SOFALCONE]

AC50 [1]: > 30 µM | AC50 (Histamine H2 receptor): > 30 µM | AC50 [2]: > 30 µM | AC50 [3]: > 30 µM | AC50 [4]: > 30 µM | AC50 (Motilin receptor): > 30 µM | AC50 [5]: > 30 µM | AC50 [6]: > 30 µM | AC50 [7]: > 30 µM | AC50 [8]: 0.16 µM | AC50 [9]: > 30 µM
Compound: CN(C)c1cc(NC(=O)CNC(C)(C)C)c(O)c2c1C[C@H]1C[C@H]3[C@H](N(C)C)C(O)=C(C(N)=O)C(=O)[C@@]3(O)C(O)=C1C2=O [TIGECYCLINE]

AC50 [1]: 1 µM | AC50 (Histamine H2 receptor): > 10 µM | AC50 [2]: > 10 µM | AC50 [3]: > 10 µM | AC50 [4]: > 30 µM | AC50 (Motilin receptor): > 10 µM | AC50 [5]: 0.16 µM | AC50 [6]: > 10 µM | AC50 [7]: > 10 µM | AC50 [8]: > 10 µM | AC50 [9]: > 30 µM
Compound: OCCN1CCN(CC/C=C2/c3ccccc3Sc3ccc(Cl)cc32)CC1 [ZUCLOPENTHIXOL]
